Assay results: ChEMBL document CHEMBL1201862, “PubChem BioAssay data set” (2004)
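Grown in 96-well plates, cells were treated for 48 hours with each compound at five concentrations. Insufficient inhibition: endpoint recorded as highest concentration tested. GI50: concentration for 50% inhibition of growth.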 The source made the active and inactive calls. Rule as the data show it: active = GI50 up to about 1.1 µM and inactive = higher.

How the values were obtained:
Assay in all cases: inhibition of tumour cell growth, NCI panel, 48 h
786-0 = test system: 786-0
A498 = test system: A498
A549 = test system: A549
ACHN = test system: ACHN
BT-549 = test system: BT-549
CAKI-1 = test system: CAKI-1
CCRF-CEM = test system: CCRF-CEM
COLO 205 = test system: COLO 205
DU-145 = test system: DU-145
EKVX = test system: EKVX
HCC 2998 = test system: HCC 2998
HCT-116 = test system: HCT-116
HCT-15 = test system: HCT-15
HL-60 = test system: HL-60
HOP-62 = test system: HOP-62
HOP-92 = test system: HOP-92
HT-29 = test system: HT-29
Hs-578T = test system: Hs-578T
IGROV-1 = test system: IGROV-1
K562 = test system: K562
KM12 = test system: KM12
LOX IMVI = test system: LOX IMVI
M14 = test system: M14
MCF7 = test system: MCF7
MDA-MB-231 = test system: MDA-MB-231
MDA-MB-435 = test system: MDA-MB-435
MDA-N = test system: MDA-N
MOLT-4 = test system: MOLT-4
Malme-3M = test system: Malme-3M
NCI-H226 = test system: NCI-H226
NCI-H23 = test system: NCI-H23
NCI-H460 = test system: NCI-H460
NCI-H522 = test system: NCI-H522
NCI/ADR-RES = test system: NCI/ADR-RES
OVCAR-3 = test system: OVCAR-3
OVCAR-4 = test system: OVCAR-4
OVCAR-5 = test system: OVCAR-5
OVCAR-8 = test system: OVCAR-8
PC-3 = test system: PC-3
RPMI-8226 = test system: RPMI-8226
RXF 393 = test system: RXF 393
SF-268 = test system: SF-268
SF-295 = test system: SF-295
SF-539 = test system: SF-539
SK-MEL-28 = test system: SK-MEL-28
SK-MEL-2 = test system: SK-MEL-2
SK-MEL-5 = test system: SK-MEL-5
SK-OV-3 = test system: SK-OV-3
SN12C = test system: SN12C
SNB-19 = test system: SNB-19
SNB-75 = test system: SNB-75
SR = test system: SR
SW-620 = test system: SW-620
T47D = test system: T47D
TK-10 = test system: TK-10
U-251 = test system: U-251
UACC-257 = test system: UACC-257
UACC-62 = test system: UACC-62
UO-31 = test system: UO-31

In the case of `C=C(CC)C(=O)c1ccc(OCC(=O)O)c(Cl)c1Cl` [ETHACRYNIC ACID], the GI50 (786-0) is reported as 6.93 µM (inactive), the GI50 (A498) is reported as 35.8 µM (inactive) and the GI50 (A549) is reported as > 91.8 µM (inactive). For the same molecule, the GI50 (ACHN) was 26.8 µM (inactive), the GI50 (BT-549) was 4.99 µM (inactive) and the GI50 (CAKI-1) was 14.9 µM (inactive). For the same molecule, the GI50 (CCRF-CEM) was 35.8 µM (inactive), the GI50 (COLO 205) was 19 µM (inactive) and the GI50 (DU-145) was 29.5 µM (inactive). The GI50 (EKVX) was 17.5 µM (inactive), the GI50 (HCC 2998) was 17.8 µM (inactive) and the GI50 (HCT-116) was 23.1 µM (inactive). For the same molecule, the GI50 (HCT-15) was 22.6 µM, the GI50 (HL-60) was 28.3 µM (inactive) and the GI50 (HOP-62) was 20.5 µM (inactive). For the same molecule, the GI50 (HOP-92) was 12.2 µM (inactive), the GI50 (HT-29) was 17.9 µM (inactive) and the GI50 (Hs-578T) was 20.5 µM (inactive). The GI50 (IGROV-1) was 22 µM (inactive), the GI50 (K562) was 53 µM (inactive) and the GI50 (KM12) was 5.5 µM (inactive). The GI50 (LOX IMVI) was 14.7 µM (inactive), the GI50 (M14) was 18.5 µM (inactive) and the GI50 (MCF7) was 6.05 µM (inactive). The GI50 (MDA-MB-231) was 19.6 µM (inactive), the GI50 (MDA-MB-435) was 17.5 µM (inactive) and the GI50 (MDA-N) was 23.1 µM (inactive). For the same molecule, the GI50 (MOLT-4) was 20.2 µM (inactive), the GI50 (Malme-3M) was 16.9 µM (inactive) and the GI50 (NCI-H226) was 15.5 µM (inactive). The GI50 (NCI-H23) was 25 µM (inactive), the GI50 (NCI-H460) was 44.3 µM (inactive) and the GI50 (NCI-H522) was 14.8 µM (inactive). For the same molecule, the GI50 (NCI/ADR-RES) was 26.7 µM (inactive), the GI50 (OVCAR-3) was 16.1 µM (inactive) and the GI50 (OVCAR-4) was 20 µM (inactive). For the same molecule, the GI50 (OVCAR-5) was 29.8 µM (inactive), the GI50 (OVCAR-8) was 17.5 µM (inactive) and the GI50 (PC-3) was 24.9 µM (inactive). For the same molecule, the GI50 (RPMI-8226) was 14.5 µM (inactive), the GI50 (RXF 393) was 18.2 µM (inactive) and the GI50 (SF-268) was 16.7 µM (inactive). The GI50 (SF-295) was 35.6 µM (inactive), the GI50 (SF-539) was 7.87 µM (inactive) and the GI50 (SK-MEL-28) was 17.6 µM (inactive). For the same molecule, the GI50 (SK-MEL-2) was 17.1 µM (inactive), the GI50 (SK-MEL-5) was 25.8 µM (inactive) and the GI50 (SK-OV-3) was 48.1 µM (inactive). For the same molecule, the GI50 (SN12C) was 20 µM (inactive), the GI50 (SNB-19) was 15.6 µM (inactive) and the GI50 (SNB-75) was 21.8 µM (inactive). The GI50 (SR) was 31.6 µM (inactive), the GI50 (SW-620) was 19.3 µM (inactive) and the GI50 (T47D) was 9.35 µM (inactive). For the same molecule, the GI50 (TK-10) was 16.1 µM (inactive), the GI50 (U-251) was 16 µM (inactive) and the GI50 (UACC-257) was 18.9 µM (inactive). For the same molecule, the GI50 (UACC-62) was 15.2 µM (inactive) and the GI50 (UO-31) was 19.5 µM (inactive).

In the case of `Cc1cc2nc3c(C#N)c(C)c(CCCl)c(Cl)n3c2cc1C`, the GI50 (786-0) is reported as 2 µM (inactive), the GI50 (A498) is reported as 2.92 µM (inactive) and the GI50 (A549) is reported as 7.19 µM (inactive). The GI50 (ACHN) was 5.3 µM (inactive), the GI50 (BT-549) was 2.49 µM (inactive) and the GI50 (CAKI-1) was 2.88 µM (inactive). The GI50 (CCRF-CEM) was 2.34 µM (inactive), the GI50 (COLO 205) was 3.69 µM (inactive) and the GI50 (DU-145) was 3.84 µM (inactive). The GI50 (EKVX) was 10.5 µM (inactive), the GI50 (HCC 2998) was 2.97 µM (inactive) and the GI50 (HCT-116) was 1.57 µM (inactive). For the same molecule, the GI50 (HCT-15) was 1.87 µM, the GI50 (HL-60) was 2.55 µM (inactive) and the GI50 (HOP-62) was 2.44 µM (inactive). For the same molecule, the GI50 (HOP-92) was 2.04 µM (inactive), the GI50 (HT-29) was 2.46 µM (inactive) and the GI50 (Hs-578T) was 3.23 µM (inactive). The GI50 (IGROV-1) was 2.09 µM (inactive), the GI50 (K562) was 2.39 µM (inactive) and the GI50 (KM12) was 6.1 µM (inactive). For the same molecule, the GI50 (LOX IMVI) was 1.46 µM (inactive), the GI50 (M14) was 2.27 µM (inactive) and the GI50 (MCF7) was 2.9 µM (inactive). The GI50 (MDA-MB-231) was 2 µM (inactive), the GI50 (MDA-MB-435) was 2.07 µM (inactive) and the GI50 (MDA-N) was 2.61 µM (inactive). The GI50 (MOLT-4) was 2.08 µM (inactive), the GI50 (Malme-3M) was 2.96 µM (inactive) and the GI50 (NCI-H226) was 0.166 µM (active). For the same molecule, the GI50 (NCI-H23) was 2.12 µM (inactive), the GI50 (NCI-H460) was 5.77 µM (inactive) and the GI50 (NCI-H522) was 12 µM (inactive). For the same molecule, the GI50 (NCI/ADR-RES) was 3.18 µM (inactive), the GI50 (OVCAR-3) was 1.75 µM (inactive) and the GI50 (OVCAR-4) was 6.76 µM (inactive). The GI50 (OVCAR-5) was 2.18 µM (inactive), the GI50 (OVCAR-8) was 2.63 µM (inactive) and the GI50 (PC-3) was 5.6 µM (inactive). For the same molecule, the GI50 (RPMI-8226) was 2.58 µM (inactive), the GI50 (RXF 393) was 1.81 µM (inactive) and the GI50 (SF-268) was 2.36 µM (inactive). For the same molecule, the GI50 (SF-295) was 3.49 µM (inactive), the GI50 (SF-539) was 2.51 µM (inactive) and the GI50 (SK-MEL-28) was 4.52 µM (inactive). The GI50 (SK-MEL-2) was 1.87 µM (inactive), the GI50 (SK-MEL-5) was 4.39 µM (inactive) and the GI50 (SK-OV-3) was > 28.6 µM (inactive). The GI50 (SN12C) was 1.92 µM (inactive), the GI50 (SNB-19) was 10.8 µM (inactive) and the GI50 (SNB-75) was 1.87 µM (inactive). The GI50 (SR) was 2.29 µM (inactive), the GI50 (SW-620) was 2.34 µM (inactive) and the GI50 (T47D) was 3.13 µM (inactive). For the same molecule, the GI50 (TK-10) was 2.18 µM (inactive), the GI50 (U-251) was > 43.5 µM (inactive) and the GI50 (UACC-257) was 2.23 µM (inactive). The GI50 (UACC-62) was 1.93 µM (inactive) and the GI50 (UO-31) was 2.02 µM (inactive).

`N/C(S)=N/N=C/c1ccc(N)cn1` was tested, and the GI50 (786-0) was 2.43 µM (inactive), the GI50 (A498) was > 8.15 µM (inactive) and the GI50 (A549) was 3.54 µM (inactive). The GI50 (ACHN) was 1.29 µM (inactive), the GI50 (BT-549) was 3.48 µM (inactive) and the GI50 (CAKI-1) was 3.78 µM (inactive). For the same molecule, the GI50 (CCRF-CEM) was 1.93 µM (inactive), the GI50 (COLO 205) was 2.99 µM (inactive) and the GI50 (DU-145) was 2.75 µM (inactive). For the same molecule, the GI50 (EKVX) was > 10 µM (inactive), the GI50 (HCC 2998) was 3.65 µM (inactive) and the GI50 (HCT-116) was 3.98 µM (inactive). The GI50 (HCT-15) was 5.87 µM, the GI50 (HL-60) was 1.91 µM (inactive) and the GI50 (HOP-62) was 5.73 µM (inactive). For the same molecule, the GI50 (HOP-92) was 3.44 µM (inactive), the GI50 (HT-29) was 4.47 µM (inactive) and the GI50 (Hs-578T) was > 8.36 µM (inactive). For the same molecule, the GI50 (IGROV-1) was > 10 µM (inactive), the GI50 (K562) was 3.1 µM (inactive) and the GI50 (KM12) was 6.22 µM (inactive). The GI50 (LOX IMVI) was 3.62 µM (inactive), the GI50 (M14) was 2.21 µM (inactive) and the GI50 (MCF7) was 3.01 µM (inactive). The GI50 (MDA-MB-231) was > 6.79 µM (inactive), the GI50 (MDA-MB-435) was 5.9 µM (inactive) and the GI50 (MDA-N) was > 6.59 µM (inactive). The GI50 (MOLT-4) was 1.95 µM (inactive), the GI50 (Malme-3M) was 4.42 µM (inactive) and the GI50 (NCI-H226) was 4.24 µM (inactive). The GI50 (NCI-H23) was 2.13 µM (inactive), the GI50 (NCI-H460) was 3.09 µM (inactive) and the GI50 (NCI-H522) was 3.63 µM (inactive). The GI50 (NCI/ADR-RES) was 3.08 µM (inactive), the GI50 (OVCAR-3) was 5.01 µM (inactive) and the GI50 (OVCAR-4) was > 10 µM (inactive). For the same molecule, the GI50 (OVCAR-5) was 9.06 µM (inactive), the GI50 (OVCAR-8) was 3.18 µM (inactive) and the GI50 (PC-3) was 6.15 µM (inactive). For the same molecule, the GI50 (RPMI-8226) was 3.52 µM (inactive), the GI50 (RXF 393) was 3.42 µM (inactive) and the GI50 (SF-268) was 4.29 µM (inactive). The GI50 (SF-295) was 3.52 µM (inactive), the GI50 (SF-539) was 0.404 µM (active) and the GI50 (SK-MEL-28) was > 10 µM (inactive). For the same molecule, the GI50 (SK-MEL-2) was > 10 µM (inactive), the GI50 (SK-MEL-5) was 2.25 µM (inactive) and the GI50 (SK-OV-3) was 9.84 µM (inactive). For the same molecule, the GI50 (SN12C) was 3.92 µM (inactive), the GI50 (SNB-19) was 9.89 µM (inactive) and the GI50 (SNB-75) was 2.4 µM (inactive). The GI50 (SR) was 3.67 µM (inactive), the GI50 (SW-620) was > 10 µM (inactive) and the GI50 (T47D) was 6.68 µM (inactive). For the same molecule, the GI50 (TK-10) was > 10 µM (inactive), the GI50 (U-251) was 4.06 µM (inactive) and the GI50 (UACC-257) was > 10 µM (inactive). The GI50 (UACC-62) was 3.19 µM (inactive) and the GI50 (UO-31) was 2.28 µM (inactive).
